Laboratory results published in patent US20090318493A1 (Roche Palo Alto LLC, priority 2008, published 2009).
pIC50: −log10 of the molar value. Read-outs that look alike come from different tables or passages of the source.

Key:
Type in all cases: binding
hSERT transporter = molecular target: T1, hSERT transporter (Homo sapiens, UniProt P31645); test: Human serotonin transporter (hSERT) scintillation proximity assay, competition with [3H]-Citalopram; settings: for IC50: Table 1, read-out: pIC50 SERT (converted)
T1 construct: expressed in transfected cells; membranes prepared
Source text: Screening for Human Serotonin Transporter (hSERT) Antagonists Using a Scintillation Proximity Assay (SPA)
The screening assay of this example was used to determine the affinity of ligands at the hSERT transporter by competition with [^3H]-Citalopram.
Scintillation Proximity Assay (SPA) works by bringing radioligand within close proximity to the bead's scintillant to stimulate light emission. In this assay, the receptor-containing membranes were pre-coupled to the SPA beads and the binding of the appropriate radioligand to the transporter was measured. The light emission was proportional to the amount of bound radioligand. Unbound radioligand produced no signal as a result of distant proximity to scintillant (lack of energy transfer).
Cells are released from culture flasks using PBS for 1-2 minutes. The cells were subsequently centrifuged at 1000 g's for 5 minutes and resuspended in PBS prior to being used in the membrane preparation.
(§1) Cell membranes were prepared using a membrane preparation buffer of 50 mM TRIS (pH 7.4). Cell membranes were prepared from a single cube (7.5×10^9 cells total). Cells were homogenized using a Polytron (setting medium for a 4 second burst). The homogenate was then centrifuged at 48,000×g for 15 minutes, the supernatant subsequently removed and discarded, and the pellet resuspended with fresh buffer. After a second centrifugation, the pellet was re-homogenized and brought to a final volume determined during the assay. Typically, membrane portions were aliquoted in 3 mg/ml (w:v). and stored at −80° C.
Compounds of the invention were diluted from 10 mM to 0.1 nM FAC (10 point curves, whole log/half log dilutions) via a Beckman Biomek 2000 using a serial dilution protocol. The test compounds were then transferred (20 μl/well) and the [^3H]-Citalopram radioligand was added at 50 μl/well. Membrane and beads were prepared to a ratio of 10 μg: 0.7 mg, with 0.7 mg PVT-WGA Amersham beads (Cat# RPQ0282V) added per well. 130 μl of the membrane: bead mixture was added to the assay plate.
The % inhibition was calculated for each compound tested [(Compound counts per minute (CPM) at maximum concentration-Non-Specific CPM)/Total CPM*100].
(§2) where max=total binding, min=non specific binding, x=concentration (M) of the tested compound and n=Hill slope. The inhibition dissociation constant (Ki) of each compound was determined according to the method of Cheng-Prusoff and then converted into negative logarithm (pKi) of the Ki.

hDAT = molecular target: T2, hDAT (Homo sapiens, UniProt Q01959); test: Human dopamine transporter scintillation proximity assay, competition with [3H]-Vanoxerine; settings: for IC50: Table 1, read-out: pIC50 DAT (converted)
T2 construct: expressed in transfected cells; plated whole cells
Protocol: This assay was used to determine the affinity of ligands for the dopamine transporter by competition with [^3H]-Vanoxerine.
Cells were plated four hours prior to experiment by placing approximately 30,000 cells per well (in PBS) on white, opaque Cell-Tak coated 96 well plates. Extra buffer was apriated from the cell plates using an ELx405 plate washer.
Compounds of the invention were diluted from 10 mM to 0.1 nM FAC (10 point curves, whole log/half log dilutions) via a Beckman Biomek 2000 using a 10-point dilution protocol. The mixtures were allowed to stand at room temperature for 30 minutes, and were then counted on a Packard TopCount LCS, a generic SPA counting protocol settings, Count Time (min.): 0.40, Background Subtract: none, Half-Life Correction: none, Quench Indicator: tSIS, Platemap blank subtraction: none, Cross talk reduction: Off).
The % inhibition was calculated for each compound tested [(Compound CPM at maximum concentration-Non-Specific CPM)/Total CPM*100].
as §2

hNET transporter = molecular target: T3, hNET transporter (Homo sapiens, UniProt P23975); test: Human norepinephrine transporter (hNET) scintillation proximity assay, competition with [3H]-Nisoxetine; settings: for IC50: Table 1, read-out: pIC50 NET (converted)
T3 construct: expressed in transfected cells; membranes prepared
Protocol: This assay was used to determine the affinity of ligands for the hNET transporter by competition with [^3H]-Nisoxetine. As in the hSERT assay of the above example, receptor-containing membranes were pre-coupled to the SPA beads and the binding of the appropriate radioligand to the transporter was measured. The light emission was proportional to the amount of bound radioligand, with unbound radioligand producing no signal.
HEK-293 cells (Tatsumi et al., Eur. J. Pharmacol. 1997, 30, 249-258) stably expressing recombinant hNET (Clone: HEK-hNET #2) were maintained with media (DMEM hi glucose with 10% FBS, 300 μg/ml G418 and 2 mM L-Glutamine) and incubated at 37° C. with 5% CO2. Cells were released from culture flasks using PBS for 1-2 minutes. The cells were subsequently centrifuged at 1000 g's for 5 minutes and resuspended in PBS prior to being used in the membrane preparation.
as §1, with “(7.5×10^9cells” for “(7.5×10^9 cells”, “3-6 mg/mil” for “3 mg/ml”
^3[H] […] Compounds of the invention were diluted from 10 mM to 0.1 nM FAC (10 point curves, whole log /half log dilutions) via a Beckman Biomek 2000 using a serial dilution protocol. The test compounds were then transferred (20 μl/well) and the radioligand was added at 50 μl/well. Membrane and beads were prepared to a ratio of 10 μg: 0.7 mg, with 0.7 mg PVT-WGA Amersham beads (Cat# RPQ0282V) added per well. 130 μl of the membrane: bead mixture was added to the assay plate. The mixtures were allowed to stand at room temperature for one hour, and were then counted on a Packard TopCount LCS, a generic SPA counting protocol settings (Energy Range: Low, Efficiency Mode: Normal, Region A: 1.50-35.00, Region B: 1.50-256.00, Count Time (min.): 0.40, Background Subtract: none, Half-Life Correction: no, Quench Indicator: tSIS, Platemap blank subtraction: No, Cross talk reduction: Off).
The % inhibition was calculated for each compound tested [(Compound CPM at maximum concentration-Non-Specific CPM)/Total CPM*100]. The concentration producing 50% inhibition (IC50) was determined using an iterative non-linear curve fitting technique with Activity Base/Xlfit using the following equation:
as §2

T1 sequence (P31645 whole entry): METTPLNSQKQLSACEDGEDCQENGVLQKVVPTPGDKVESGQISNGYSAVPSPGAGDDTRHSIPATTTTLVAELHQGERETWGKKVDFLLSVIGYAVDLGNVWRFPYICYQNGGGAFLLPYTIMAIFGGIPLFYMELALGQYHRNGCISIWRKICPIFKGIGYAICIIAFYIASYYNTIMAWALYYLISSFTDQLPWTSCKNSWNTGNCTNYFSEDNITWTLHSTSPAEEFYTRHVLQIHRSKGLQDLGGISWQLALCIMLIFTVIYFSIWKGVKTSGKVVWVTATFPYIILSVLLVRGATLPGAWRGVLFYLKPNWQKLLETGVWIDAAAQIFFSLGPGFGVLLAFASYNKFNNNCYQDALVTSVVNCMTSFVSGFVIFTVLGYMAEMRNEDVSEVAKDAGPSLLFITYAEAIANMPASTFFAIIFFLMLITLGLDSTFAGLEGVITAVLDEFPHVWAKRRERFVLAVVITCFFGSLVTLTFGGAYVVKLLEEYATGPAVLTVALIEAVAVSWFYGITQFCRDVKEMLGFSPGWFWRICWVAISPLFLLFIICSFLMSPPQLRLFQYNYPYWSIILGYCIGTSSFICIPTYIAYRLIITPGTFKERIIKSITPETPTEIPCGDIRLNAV
T3 sequence (P23975 whole entry): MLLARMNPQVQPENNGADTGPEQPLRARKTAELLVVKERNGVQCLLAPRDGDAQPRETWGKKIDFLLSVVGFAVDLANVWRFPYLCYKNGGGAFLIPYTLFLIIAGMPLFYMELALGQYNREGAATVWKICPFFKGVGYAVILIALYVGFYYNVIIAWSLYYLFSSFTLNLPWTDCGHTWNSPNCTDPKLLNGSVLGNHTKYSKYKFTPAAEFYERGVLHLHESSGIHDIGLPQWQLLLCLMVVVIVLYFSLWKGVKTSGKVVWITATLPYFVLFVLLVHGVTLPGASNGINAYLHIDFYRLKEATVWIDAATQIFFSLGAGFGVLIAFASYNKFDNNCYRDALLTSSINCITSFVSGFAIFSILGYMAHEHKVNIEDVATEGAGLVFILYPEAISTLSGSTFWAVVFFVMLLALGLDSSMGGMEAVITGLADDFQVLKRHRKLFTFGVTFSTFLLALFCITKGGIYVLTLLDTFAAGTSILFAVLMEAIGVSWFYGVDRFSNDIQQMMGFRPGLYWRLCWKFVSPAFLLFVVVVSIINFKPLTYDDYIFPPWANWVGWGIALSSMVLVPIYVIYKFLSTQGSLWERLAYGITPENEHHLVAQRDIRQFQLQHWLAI
T2 sequence (Q01959 whole entry): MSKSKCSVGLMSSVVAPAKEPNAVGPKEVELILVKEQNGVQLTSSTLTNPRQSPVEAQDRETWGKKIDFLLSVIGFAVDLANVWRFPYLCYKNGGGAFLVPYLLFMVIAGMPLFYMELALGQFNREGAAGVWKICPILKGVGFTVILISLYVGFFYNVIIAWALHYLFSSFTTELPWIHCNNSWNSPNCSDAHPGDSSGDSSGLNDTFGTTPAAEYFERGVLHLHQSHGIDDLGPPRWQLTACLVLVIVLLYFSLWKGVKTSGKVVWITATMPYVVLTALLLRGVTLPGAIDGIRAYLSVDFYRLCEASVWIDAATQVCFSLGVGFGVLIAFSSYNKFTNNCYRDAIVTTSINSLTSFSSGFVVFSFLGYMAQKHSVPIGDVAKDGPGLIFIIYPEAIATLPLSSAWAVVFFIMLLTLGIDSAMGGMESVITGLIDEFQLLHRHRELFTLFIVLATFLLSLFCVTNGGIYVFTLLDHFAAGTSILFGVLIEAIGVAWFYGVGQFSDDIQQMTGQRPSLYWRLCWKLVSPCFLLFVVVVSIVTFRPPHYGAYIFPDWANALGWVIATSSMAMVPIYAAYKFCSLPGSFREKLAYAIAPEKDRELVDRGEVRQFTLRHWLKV

| IC50 (hSERT transporter) [nM] | SMILES | IC50 (hDAT) [nM] | IC50 (hNET transporter) [nM] | pIC50 (hSERT transporter) | pIC50 (hDAT) | pIC50 (hNET transporter) |
| --- | --- | --- | --- | --- | --- | --- |
| 18.6 | CCCC1(C(=O)c2ccc(Cl)c(N(C)c3ccccc3)c2)CCNCC1 [Compound 51, [4-Chloro-3-(methyl-phenyl-amino)-phenyl]-(4-propyl-piperidin-4-yl)-methanone] | 195 | 162 |  |  |  |
| 1.15 | O=C(c1ccc(Cl)c(Cl)c1)C1(CC2CCOCC2)CCNCC1 [Compound 41, (3,4-Dichloro-phenyl)-[4-(tetrahydro-pyran-4-ylmethyl)-piperidin-4-yl]-methanone] | 7.94 | 209 |  |  |  |
|  | CCCC1(C(=O)c2ccc(Cl)c(Oc3ccccc3)c2)CCNC1 (stereo in doubt) [Compound 29, (4-Chloro-3-phenoxy-phenyl)-((S)-3-propyl-pyrrolidin-3-yl)-methanone] |  | 2.63 | 7.88 | 7.98 |  |
|  | CC(C)C[C@@]1(C(=O)c2ccc(Cl)c(Cl)c2)CC[C@@H]2CC[C@H]1N2 [Compound 47, (3,4-Dichloro-phenyl)-((1R,2S,5R)-2-isobutyl-8-aza-bicyclo[3.2.1]oct-2-yl)-methanone] |  | 200 | 8.10 | 7.62 |  |
| 1.48 | O=C(c1ccc(Cl)c(Cl)c1)C1(CC2CCCC2)CCNCC1 [Compound 39, (4-Cyclopentylmethyl-piperidin-4-yl)-(3,4-dichloro-phenyl)-methanone] | 3.16 | 41.7 |  |  |  |
|  | CC(C)(C)CCC1(C(=O)c2ccc(Cl)c(Cl)c2)CCCNC1 (stereo not drawn) [Compound 56, (3,4-Dichloro-phenyl)-[3-(3,3-dimethyl-butyl)-piperidin-3-yl]-methanone] |  | 32.4 | 7.76 | 7.82 |  |
|  | CC(C)(C)CC[C@@]1(C(=O)c2cc(F)c(N)c(Cl)c2)CCNC1 [Compound 26, (4-Amino-3-chloro-5-fluoro-phenyl)-[(R)-3-(3,3-dimethyl-butyl)-pyrrolidin-3-yl]-methanone] |  | 25.1 | 7.12 | 7.57 |  |
|  | COC(C)(C)CCC1(C(=O)c2cc(F)c3[nH]ccc3c2)CCNC1 (stereo not drawn) [Compound 6] |  | 4.79 | 8.97 | 7.81 |  |
|  | CCCC1(C(=O)c2ccc(Cl)c(OCCC(C)(C)C)c2)CCNC1 (stereo not drawn) [Compound 11, [4-Chloro-3-(3,3-dimethyl-butoxy)-phenyl]-(3-propyl-pyrrolidin-3-yl)-methanone] | 1480 | 631 | 7.28 |  |  |
|  | Cc1cc(C(=O)C2(CCC(C)(C)C)CCNC2)ccc1Cl (stereo not drawn) [Compound 1, (4-Chloro-3-methyl-phenyl)-[3-(3,3-dimethyl-butyl)-pyrrolidin-3-yl]-methanone] |  | 5.5 | 8.82 | 8.20 |  |
|  | CCCC[C@]1(C(=O)c2ccc(Cl)c(Cl)c2N)CC2CC[C@H]1N2 [Compound 3] |  | 182 | 7.08 | 7.15 |  |
|  | CC(C)(C)CC[C@]1(C(=O)c2cc(F)c(N)c(Cl)c2)CCNC1 [Compound 25, (4-Amino-3-chloro-5-fluoro-phenyl)-[(S)-3-(3,3-dimethyl-butyl)-pyrrolidin-3-yl]-methanone] |  | 0.977 | 8.76 | 9.26 |  |
|  | CCCC1(C(=O)c2ccc(Cl)c(Oc3ccccc3F)c2)CCNC1 (stereo not drawn) [Compound 17, [4-Chloro-3-(2-fluoro-phenoxy)-phenyl]-(3-propyl-pyrrolidin-3-yl)-methanone] |  | 24 | 7.32 | 7.80 |  |
|  | CNc1ccc(C(=O)C2(CC(C)C)CCNCC2)cc1Cl [Compound 44, (3-Chloro-4-methylamino-phenyl)-(4-isobutyl-piperidin-4-yl)-methanone] |  | 51.3 | 9.14 | 7.24 |  |
|  | CCCC1(C(=O)c2ccc3ccccc3c2)CCNCC1 [Compound 36, Naphthalen-2-yl-(4-propyl-piperidin-4-yl)-methanone] |  | 15.8 | 9.99 | 8.04 |  |
|  | CC[C@@]1(C(=O)c2ccc(Cl)c(Cl)c2)CC[C@@H]2CC[C@H]1N2 [Compound 48, (3,4-Dichloro-phenyl)-((1R,2R,5R)-2-ethyl-8-aza-bicyclo[3.2.1]oct-2-yl)-methanone] |  | 1150 | 8.11 | 6.68 |  |
| 1.12 | COC(C)(C)CC1(C(=O)c2ccc(Cl)c(Cl)c2)CCNCC1 [Compound 37, (3,4-Dichloro-phenyl)-[4-(2-methoxy-2-methyl-propyl)-piperidin-4-yl]-methanone] | 4.79 | 105 |  |  |  |
|  | CCCC1(C(=O)c2ccc(Cl)c(Oc3ccc(F)cc3)c2)CCNC1 (stereo not drawn) [Compound 18, [4-Chloro-3-(4-fluoro-phenoxy)-phenyl]-(3-propyl-pyrrolidin-3-yl)-methanone] |  | 15.1 | 7.62 | 7.78 |  |
|  | CCCC1(C(=O)c2ccc(Cl)c(Oc3ccccc3)c2)CCNC1 (stereo in doubt) [Compound 30, (4-Chloro-3-phenoxy-phenyl)-((R)-3-propyl-pyrrolidin-3-yl)-methanone] |  | 24 | 7.73 | 8.63 |  |
|  | CCCC1(C(=O)c2ccc(Cl)c(-c3ccn[nH]3)c2)CCCNC1 (stereo not drawn) [Compound 50, [4-Chloro-3-(2H-pyrazol-3-yl)-phenyl]-(3-propyl-piperidin-3-yl)-methanone] | 4270 |  | 8.11 |  | 7.51 |
|  | CC(C)C[C@@]1(C(=O)c2ccc(N)c(Cl)c2)CCNC1 [Compound 27, (4-Amino-3-chloro-phenyl)-((R)-3-isobutyl-pyrrolidin-3-yl)-methanone] | 174 |  | 8.08 |  | 7.26 |

| SMILES | IC50 (hSERT transporter) [nM] | IC50 (hDAT) [nM] | IC50 (hNET transporter) [nM] | pIC50 (hSERT transporter) | pIC50 (hDAT) | pIC50 (hNET transporter) |
| --- | --- | --- | --- | --- | --- | --- |
| CCCC1(C(=O)c2ccc(Cl)c(S(=O)(=O)c3ccccc3)c2)CCNC1 (stereo not drawn) [Compound 16, (3-Benzenesulfonyl-4-chloro-phenyl)-(3-propyl-pyrrolidin-3-yl)-methanone] | 191 | 661 | 4900 |  |  |  |
